Legend:
[1] = system: TGF-β-induced pan-collagen expression; assay: In vitro 3D liver fibrosis assay (HepaRG NP 3D model); assay type: cell-based; details: 1 μM, 100 ng/mL TGF-β1, 72 hours
Protocol: An additional fibrosis assay was carried out with selected compounds using the Visikol OpenLiver™ HepaRG™ NP 3D model directed at fibrosis. The OpenLiver™ HepaRG™ NP 3D model features the ability to recapitulate a number of liver disease pathologies. Whether evaluating the disease-inducing liability of a compound or exploring targets to exploit for therapeutic amelioration of disease state, the HepaRG™ NP 3D model is capable of recapitulating disease features such hepatocellular lipid accumulation, nonparenchymal cell phenotype shift, and collagen matrix deposition.
HepaRGs (Lonza, NSHPRG, Lot #HNS1013) and non-parenchymal (NP) cells (Stellates, Kupffers and LSECS (Lonza, Lot HUM201221)) were thawed, assessed for viability and seeded at a hepatocyte to NP cell ratio of 60:40 into an ultra-low attachment round-bottom plate (Corning, 4515). The cells were initially cultured in William's E medium supplemented with HepaRG Thaw, Plate & General Purpose Supplement (Thermo Fisher, HPRG770) and GlutaMax (Thermo Fisher, 35050061) overnight. The next day the medium was half exchanged with William's E medium supplemented with HepaRG Maintenance Supplement (Thermo Fisher, HPRG720) and GlutaMax (Thermo Fisher, 35050061). […]
Clearing the spheroid with Visikol HISTO-M™ allows for clear images throughout the spheroid volume, therefore allowing the entire z-stack to be analyzed. […]

[2] = system: phospho-SMAD2 (S465/S467); assay: Phospho-SMAD2 assay in RDSR cells; assay type: cell-based; details: Homo sapiens, 0.5 h, 100 ng/ml TGF-β1, 30 minutes
From the text: TGF-β is a pleiotropic cytokine involved in extremely conserved pathways relevant to cell growth, differentiation, and development. TGF-β signaling is triggered when the activated TGF-β homodimer binds to the TGF-β receptor 2 (TGFbR2), which in turn leads to the recruitment and phosphorylation of TGF-β receptor 1 (TGFbR1). Activated TGFbR1 phosphorylates the signal transduction molecules SMAD2 and SMAD3, which then bind to the common mediator SMAD4 and translocate to the nucleus where they alter gene transcription. In this assay, phospho-SMAD2 (S465/S467), a direct phosphorylation substrate of TGFbR1, was used as a readout of TGF-β pathway activity. Vactosertib (a TGFbR1 inhibitor available from MedChem Express HY-19928) was included as a positive control.
The RD SMAD reporter (RDSR) cell line was generated by stably integrating the SMAD reporter plasmid (Promega, pGL4.48[luc2P/SBE/Hygro]) into the human rhabdomyosarcoma cell line RD (ATCC, CCL-136).
RDSR cells were seeded in DMEM (ATCC30-2002)+10% FBS in 96-well plate and allowed to grow overnight at 5% CO2 and 37° C. The next day, cells were pre-treated with Compound 04, Compound 01 or vactosertib at various concentrations, or with vehicle (DMSO), for one hour. Cells were then stimulated with recombinant human TGF-β1 (R&D Systems 7754-BH-005) at a final concentration of 100 ng/ml, in the presence of Compound 04, Compound 01, vactosertib, or DMSO for thirty minutes. A no-TGF-β1 stimulation condition was included for baseline phospho-SMAD2 level measurement.
The phospho-SMAD2 levels were determined using the Bio-Plex Pro™ Phospho-Smad2 (Ser465/Ser467) bead/antibody set (BioRad 171V50019M). Phospho-SMAD2 levels were normalized to ß-tubulin (MILLIPLEX MAP ß-Tubulin Total Magnetic Bead MAPmate™, Millipore 46-713MAG) or GAPDH (MILLIPLEX MAP GAPDH Total Magnetic Bead MAPmate™, Millipore 46-667MAG) levels from each sample. All samples were analyzed in a multiplex fashion with the Bio-Plex Pro Cell Signaling Reagent Kit (BioRad 171304006M). […] Bead suspension was analyzed using the Luminex system (MAGPIX). […]

Compound | TGF-β-induced pan-collagen expression [1] | IC50 [2] [nM]
Cc1nn(CC(F)(F)F)cc1Nc1cc(Nc2cnnc3c(C)cccc23)ccn1 [Compound 01, N2-[3-methyl-1-(2,2,2-trifluoroethyl)-1H-pyrazol-4-yl]-N4-(8-methylcinnolin-4-yl)pyridine-2,4-diamine] | inhibited TGF-β-induced pan-collagen expression | < 200
Clc1cccc2c(Nc3ccnc(Nc4cccc(N5CCOCC5)c4)c3)cnnc12 [Compound 04, N4-(8-chlorocinnolin-4-yl)-N2-[3-(morpholin-4-yl)phenyl]pyridine-2,4-diamine] | inhibited TGF-β-induced pan-collagen expression | < 200
Cc1cccc(-c2[nH]c(CNc3ccccc3F)nc2-c2ccc3ncnn3c2)n1 [Vactosertib, vactosertib, reference compound] | – | < 200
